# Test results reported in US10240124B2, “Cell culture substrate comprising a laminin and a cadherin” (BioLamina AB, priority 2011, dated 2019).
# Assays:
# [1] = test system: human embryonic stem cells; assay: Survival of hES cells plated in single cell suspension on precoated dishes (description); format: cell-based; conditions: O3 medium, 30 Kcells/cm^2
# Description: In other aspects, the present disclosure provides a new material, isolated laminin-521, which permits human embryonic stem cell survival after dissociation into single cell suspension. The stem cells were dissociated into single cell suspension by Trypsin-EDTA treatment, pelleted by centrifugation, resuspended into O3 medium, filtered through a 40 μm sieve, and plated at a density of 30 Kcells/cm^2 on cell culture dishes precoated by either isolated laminin-521, laminin-511, or Matrigel. After one day in culture, the cells plated on Matrigel died, as is known in the art.
# Human ES cells [2] = assay: Expansion of hES cells on r-laminin-521 with single cell dissociation passaging (Example 1); format: cell-based
# Description: In further aspects, the present disclosure provides a method to expand human embryonic stem cells in pluripotent state. It has been shown that human embryonic stem cells plated in single cell suspension on laminin-521 survived and proliferated at a higher rate than that of classical methods known in the art. After 3 passages (1 month) the cells passaged in a single cell suspension underwent the same number of cell divisions as that of cell cultures passaged in pieces on Matrigel after 20 passages (3 months). Therefore, the new method was advantageous in terms of time and labor, which may provide significant economical profits.
# Human ES cells were cultured on r-laminin-521-coated laboratory dishes in chemically defined O3 medium (described in Rodin et al., Nature Biotechnol., vol. 28, pp. 611-615 (2010)) at 37° C. in 5% CO2. Cells were routinely passed once every 10-12 days by exposure to Trypsin-EDTA solution (GIBCO Invitrogen) for 5 minutes at 37° C. They were then gently pipetted to break into single-cell suspension and defined trypsin inhibitor (GIBCO Invitrogen) was added. The cell suspension was centrifuged […], the supernatant discarded, the cell pellet resuspended in prewarmed O3 medium, and cells were then passed through a 40 μm sieve. After that cells were plated on new r-laminin-521-coated dishes at a concentration 30 Kcells/cm^2 (1:25-1:30 split ratio). Cells were fed once a day with fresh medium prewarmed in an incubator for 1 hour, except for the first day after a passage, when only a few drops of fresh medium were added. Control cells of the same line were cultured on Matrigel (BD Biosciences) in O3 medium as described in Rodin et al., Nature Biotechnol., vol. 28, pp. 611-615 (2010). Control cells were passaged in pieces.
# human ES cells (HS181) = assay: Cell adhesion assay, Crystal Violet (Example 1); format: cell-based
# Procedure: Ninety-six-well tissue cell culture plates were coated overnight at 4° C. with sterile solutions of the ECM proteins mouse LN-111 (Invitrogen), human recombinant LN-511, and human recombinant LN-521, all at a concentration of 30 μg/ml (5 μg/cm^2). For control cells, BD Matrigel™ hESC qualified (BD Biosciences) was used according to the manufacturer's instructions.
# The assay was performed as described (Extracellular Matrix Protocols, 2000). Briefly, 96-well plates were coated by extracellular matrix proteins as described above and blocked by O3 medium containing bovine serum albumin. The ES cells were plated at a cell density of 600 cell/mm^2 upon extracellular matrix-coated plates and were left to adhere for either 1 hour or 1 day at the cell incubator. Non-adherent cells were washed away, and adherent cells were fixed for 20 min by 5% glutaraldehyde, stained by 0.1% Crystal Violet.
# Human ES cells [3] = assay: FACS analysis for OCT4 (Example 1); format: cell-based; conditions: after several single cell suspension passages, O3 medium, FIG. 9 and 10
# Procedure: OCT4 expression was analyzed as described in Ludwig, T. E. et al. Derivation of human embryonic stem cells in defined conditions. Nat. Biotechnol. 24, 185-187 (2006). Cells were run on FACSCalibur Flow Cytometer (Becton Dickinson). Data were analyzed with CellQuest software (Becton Dickinson).
# Human ES cells [4] = assay: Real-time quantitative RT-PCR of Oct4 and Nanog (Example 1); format: cell-based; conditions: FIG. 11
# Procedure: Total RNA was isolated and cDNA was synthesized as described in Rodin et al., Nature Biotechnol., vol. 28, pp. 611-615 (2010). Real-time quantitative RT-PCR Taqman assays were performed using the Applied Biosystems 7300 Real-Time PCR System. All reactions were done in quadruplicate with predeveloped gene expression assay mix (Applied Biosystems) containing primers and a probe for the mRNA of interest. Additional reactions for each experiment included predeveloped gene expression assay mix for GAPDH, used to normalize the RNA input. All data were analyzed with 7300 System SDS Software version 1.4.
# hES cells = assay: Cell survival assay, 24 hours (Example 2); format: cell-based, human
# Procedure: Briefly, 96-well plates were coated by extracellular matrix proteins as described above and blocked by O3 medium containing bovine serum albumin. The ES cells were plated at cell density of 50,000 cells/cm^2 onto extracellular matrix-coated plates and left to adhere for 1 hour in a cell incubator. After that the plates were washed 3 times with the medium to remove the non-adherent cells, and then the adherent cells were fixed for 20 minutes by 5% glutaraldehyde, stained by 0.1% Crystal Violet. (Kebo Lab, Spanga, Sweden, http://www.kebolab.se). After one hour and 3 washes with water, Crystal Violet was extracted with 10% acetic acid and quantified by measuring optical density at 570 nm. All the experiments were performed in quadruplicate.
# The survival assay was performed as described for the cell adhesion assay above, except that the cells were left in the cell incubator for 24 hours. For inhibition of survival assay, the cells were kept in a medium with function blocking antibodies at the concentrations recommended by the manufacturer or pathway inhibitors at concentrations indicated in the text for 30 minutes, and then plated on the coated dishes. All the experiments were performed in quadruplicate.
# Pluripotent hES cells express α1, α5, β1, β2 and γ1 laminin chains. To compare the adhesion and clonal survival of hES cells plated from single cell suspension to different coating substrata, hES cells growing as monolayers on LN-511 or as clusters on a feeder layer were trypsinized into single cell suspension in O3 medium and plated on cell culture dishes coated with Matrigel, LN-111, LN-511, LN-521 or a mixture of LN-511 and LN-521, in the absence or presence of a ROCK inhibitor (Y-27632) and analyzed after 24 hours.
# [5] = test system: human pluripotent cells (HS181, HS401, H1, ChiPSW, CutB1.2); assay: Long-term self-renewal culture of hES and iPS cells on LN-521 (Example 2); format: cell-based; conditions: for passages of proliferation on LN-521: O3 medium
substance,measurement,setting,value
"LN-521: protein formed by joining α5, β2 and γ1 laminin chains; human recombinant, produced in HEK293 cells",survival of human embryonic stem cells after one day in culture,[1],survived and started to proliferate
same,passages in single cell suspension giving the same number of cell divisions as cultures passaged in pieces on Matrigel after 20 passages (3 months),Human ES cells [2]; 1 month,3 passages
same,passages to the same number of cell doublings as stem cells after 20 passages (100 days) by conventional methods,"Human ES cells [2]; 1 month, FIG. 8",3 passages
same,increase in the number of cells versus time compared with Matrigel,Human ES cells [2]; FIG. 8,much faster rate
same,proliferation rate compared with classical methods,Human ES cells [2]; plated in single cell suspension,higher rate
same,passages of robust proliferation at a stable and high rate,"Human ES cells [2]; single cell passaging every 10-12 days, 1:25 to 1:30, 3 months",at least 9 passages
same,adhesion at 1 day without additives compared with all dishes including the ROCK inhibitor,human ES cells (HS181); FIG. 7,similar
same,cells remaining attached / surviving 24 hours after plating,"human ES cells (HS181); HS181 completely dissociated, O3 medium without any additives, FIG. 4",survived
same,adhesion of human ES cells at 1 hour,"human ES cells (HS181); O3 medium without any additives, without Y-27632, FIG. 6",roughly the same
same,adhesion at 1 day relative to Matrigel without additives,"human ES cells (HS181); without additives, FIG. 7",20 times
same,percentage of Oct4 positive (pluripotent) cells compared with Matrigel,Human ES cells [3],much higher percentage
same,number of mRNA transcripts of Oct4 and Nanog compared with Matrigel,Human ES cells [4],higher numbers of transcripts
same,survival of Y-27632 treated human ES cells compared with Matrigel,"hES cells; 40,000 cells per 1 cm^2, 10 μM Y-27632",survived better
same,survival after 24 hours relative to LN-511,hES cells; O3 medium,three times higher
same,survival after 24 hours relative to Matrigel,hES cells; O3 medium,approximately 20 times
same,survival of hES cells 24 hours after plating from single cell suspension,"hES cells; O3 medium, absence of ROCK inhibitor",did so as single cells
same,survival relative to Matrigel without exogenous bFGF,hES cells; exogenous bFGF removed from the O3 medium,20 times
same,survival 24 hours after plating in medium lacking all growth factors of the TeSR1 formulation,"hES cells; no bFGF, LiCl, GABA, pipecolic acid, TGFβ",survived
same,passages cultured on LN-521,"[5]; ChiPSW iPS cells, mTeSR1",3 passages
same,passages cultured on LN-521,"[5]; CutB1.2 iPS cells, mTeSR1",5 passages
same,passages of proliferation on LN-521,"[5]; H1 cells, 6 months",≥ 15 passages
same,passages cultured on LN-521,"[5]; H1 cells, TeSR2, xeno-free, 5 months",12 passages
same,passages of proliferation on LN-521,"[5]; HS181 cells, 9 months",at least 24 passages
same,passages of proliferation on LN-521,"[5]; HS401 cells, 2 months",≥ 5 passages
same,passages cultured on LN-521,"[5]; HS401 cells, TeSR2, xeno-free, 1.5 months",4 passages
